Earlier results on 2 molecules are cited in US12496345B2, “Method of treating cancer” (Intensity Therapeutics, Inc., priority 2012, dated 2025).

Assay in data set [1]: not given
This is another data set of the same source.

Assay in data set [2]: not given
This is another data set of the same source.

Take `N.N.O=C([O-])C1(C(=O)[O-])CCC1.[Pt+2]` [Carboplatin, platinum, diammine [1,1-cyclobutane-dicarboxylato (2−)-0,0′]-(SP-4-2)]: the soluble in water entry is listed as “approximately 14 mg/mL”. The oral bioavailability result in data set [1] (carboplatin alone, highly variable) is reported as “approximately 4%”. The “pH of a 1% solution” value in data set [2] is recorded as 5-7.
On to `O=c1[nH]cc(F)c(=O)[nH]1` [5-FU, fluorouracil], for which the oral absorption result in data set [1] (in vivo, po) was “not orally absorbed”.
